Literature values, collected in patent US9694008B2, “Fast-dissolving oral film preparation comprising aripiprazole” (CMG Pharmaceutical CO., LTD., priority 2012, dated 2017).

Conditions: at 25° C.

O=C1CCc2ccc(OCCCCN3CCN(c4cccc(Cl)c4Cl)CC3)cc2N1 [aripiprazole, 7-{4-[4-(2,3-dichlorophenyl)piperazin-1-yl]butoxy}-3,4-dihydroquinolin-2(1H)-one]
Solubility in water: about 0.00001 w/v %
